Measurements reported in PubChem BioAssay AID652002 (Sanford-Burnham Center for Chemical Genomics, 2013).
The source made the active and inactive calls. No rule for the calls is given here.

Key:
[1] = TRAIL sensitizers in caspase-8 expressing neuroblastoma cells, dose response, NB7 cells plus caspase-8, luminescence, panel (AID 652002); conditions: NB7 neuroblastoma +caspase-8, no TRAIL, compound-alone cytotoxicity counter-screen, luminescence viability, NB7+Caspase-8
NB7+Caspase-8 = assay: as above; conditions: NB7 neuroblastoma +caspase-8, TRAIL sensitization, luminescence viability, with TRAIL
[2] = target: Tumor necrosis factor receptor superfamily member 10B (Homo sapiens) (UniProt O14763); assay: as above; conditions: NB7 neuroblastoma +caspase-8, TRAIL sensitization, luminescence viability; NB7+Caspase-8; with TRAIL, mean of runs
[3] = run 1, single replicate panel EC50
[4] = run 2, single replicate panel EC50

Sequence of Tumor necrosis factor receptor superfamily member 10B (Homo sapiens) (O14763 whole entry, looked up): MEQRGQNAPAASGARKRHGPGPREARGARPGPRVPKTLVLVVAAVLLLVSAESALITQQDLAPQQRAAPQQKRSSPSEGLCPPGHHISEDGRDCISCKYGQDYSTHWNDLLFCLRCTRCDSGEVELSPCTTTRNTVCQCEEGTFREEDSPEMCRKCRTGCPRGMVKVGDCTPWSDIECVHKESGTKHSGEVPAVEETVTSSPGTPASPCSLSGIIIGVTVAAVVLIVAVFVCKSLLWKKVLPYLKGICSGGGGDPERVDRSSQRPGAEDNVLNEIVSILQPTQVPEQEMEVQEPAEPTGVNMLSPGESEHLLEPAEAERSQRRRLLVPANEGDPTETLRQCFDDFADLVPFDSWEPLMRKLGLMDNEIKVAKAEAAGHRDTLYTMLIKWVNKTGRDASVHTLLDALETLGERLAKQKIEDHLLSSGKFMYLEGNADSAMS

Structure (SMILES) | EC50 ([1]; mean of runs) | EC50 [1, 3] | EC50 [1, 4] | EC50 (NB7+Caspase-8; [3]) | EC50 (NB7+Caspase-8; [4]) | EC50 [2]
CCOc1ccc(-c2nnc(-c3ccccc3)o2)cc1 | > 12.5 µM (inactive) | > 12.5 µM | > 12.5 µM | > 12.5 µM | 10.7 µM | inactive
Nc1ccccc1C(=O)NN=Cc1cccc([N+](=O)[O-])c1 | inactive | > 12.5 µM | 9.8 µM | > 12.5 µM | 7.52 µM | inactive
Cc1nc2cc(NC(=O)Nc3cccc([N+](=O)[O-])c3)ccc2n1C | > 12.5 µM (inactive) | > 12.5 µM | > 12.5 µM | > 12.5 µM | 6.56 µM | inactive
CCOC(=O)c1sc(NC(=O)c2cccc(S(=O)(=O)N3CCc4ccccc43)c2)c(C#N)c1C | > 12.5 µM (inactive) | > 12.5 µM | > 12.5 µM | > 12.5 µM | > 12.5 µM | > 12.5 µM (inactive)
Cc1ccc(S(=O)(=O)Nc2ccccc2C(=O)Nc2nc(-c3ccc(F)cc3)cs2)cc1 | inactive | > 12.5 µM | 8.36 µM | > 12.5 µM | 9.9 µM | inactive
CCN(CC)S(=O)(=O)c1ccc(C(=O)OCC(=O)Nc2ccc(-c3nc4ccc(C)cc4s3)cc2)cc1 | > 12.5 µM (inactive) | > 12.5 µM | > 12.5 µM | > 12.5 µM | > 12.5 µM | > 12.5 µM (inactive)
O=C(c1cnc(Cl)c(Cl)c1)N1CCN(S(=O)(=O)c2ccc3ccccc3c2)CC1 | > 12.5 µM (inactive) | > 12.5 µM | > 12.5 µM | > 12.5 µM | > 12.5 µM | > 12.5 µM (inactive)
COc1cccc(NC(=O)c2ccc3c(c2)OCO3)c1 | inactive | 8.96 µM | 11.9 µM | 7.39 µM | 11 µM | inactive
O=C(NC1=NCCS1)c1cc2ccccc2o1 | inactive | > 12.5 µM | 4.22 µM | 5.35 µM | 10.4 µM | inactive
CN(C)CCCN(C(=O)c1ccc(C(=O)c2ccccc2)cc1)c1nc2ccc(F)cc2s1 | > 12.5 µM (inactive) | > 12.5 µM | > 12.5 µM | > 12.5 µM | > 12.5 µM | > 12.5 µM (inactive)
O=c1cc(-c2ccccc2)nc2cc(-c3ccc(F)cc3)[nH]n12 | > 12.5 µM (inactive) | > 12.5 µM | > 12.5 µM | > 12.5 µM | > 12.5 µM | > 12.5 µM (inactive)
Cc1ccc2c(c1)-c1nc3ccccc3cc1C2=NC1CCCCC1 | > 12.5 µM (inactive) | > 12.5 µM | > 12.5 µM | > 12.5 µM | 7.45 µM | inactive
CSc1nc(N)n2nc(-c3ccc(Cl)cc3)cc2n1 | > 12.5 µM (inactive) | > 12.5 µM | > 12.5 µM | > 12.5 µM | > 12.5 µM | > 12.5 µM (inactive)
Fc1ccc(-c2cnn3c(-c4ccncc4)ccnc23)cc1 | > 12.5 µM (inactive) | > 12.5 µM | > 12.5 µM | > 12.5 µM | > 12.5 µM | > 12.5 µM (inactive)
CCOC(=O)c1ccc(N/C=C/C(=O)c2ccco2)cc1 | > 12.5 µM (inactive) | > 12.5 µM | > 12.5 µM | > 12.5 µM | > 12.5 µM | > 12.5 µM (inactive)
COc1cc(SC#N)ccc1N=Cc1c(C)[nH]n(-c2ccc(Cl)cc2)c1=O | > 12.5 µM (inactive) | > 12.5 µM | > 12.5 µM | > 12.5 µM | > 12.5 µM | > 12.5 µM (inactive)
CC(C)Cc1nc2oc3c(Cl)ncnc3c2c2c1CCCC2 | > 12.5 µM (inactive) | > 12.5 µM | > 12.5 µM | > 12.5 µM | > 12.5 µM | > 12.5 µM (inactive)
Cc1cc(NC(=O)c2cncc(Br)c2)ccc1NC(=O)c1cc2ccccc2o1 | > 12.5 µM (inactive) | > 12.5 µM | > 12.5 µM | > 12.5 µM | 9.86 µM | inactive
CC(C)CCn1cnc2c([nH]c3cccc(Cl)c32)c1=O | > 12.5 µM (inactive) | > 12.5 µM | > 12.5 µM | > 12.5 µM | > 12.5 µM | > 12.5 µM (inactive)
C=Cc1ccc(Cn2c(C)c(C(=O)NCc3cccc(C(F)(F)F)c3)sc2=O)cc1 | > 12.5 µM (inactive) | > 12.5 µM | > 12.5 µM | > 12.5 µM | > 12.5 µM | > 12.5 µM (inactive)
CSc1ccc(/C=C/c2ccc3cccc(O)c3n2)cc1 | inactive | 7.93 µM | > 12.5 µM | > 12.5 µM | 6.31 µM | inactive
Cc1onc(-c2c(Cl)cccc2Cl)c1C(=O)ONC(=O)c1ccccc1 | > 12.5 µM (inactive) | > 12.5 µM | > 12.5 µM | > 12.5 µM | > 12.5 µM | > 12.5 µM (inactive)
COc1cccc(C(=O)Nc2ccc(C3CC3(Cl)Cl)cc2)c1 (stereo not given) | > 12.5 µM (inactive) | > 12.5 µM | > 12.5 µM | > 12.5 µM | > 12.5 µM | > 12.5 µM (inactive)
CC(=O)c1ccc(NC(=O)Nc2cccnc2)cc1 | inactive | 11.4 µM | 10.2 µM | > 12.5 µM | 9.72 µM | inactive
CC1(C)N=C(N)N=C(N)N1c1ccc(CCCCc2ccccc2)cc1 | inactive | > 12.5 µM | < 0.39 µM | < 0.39 µM | < 0.391 µM | < 0.39 µM (inactive)
O=C(Nc1ccc2ccccc2c1)c1ccc(Cl)cc1 | > 12.5 µM (inactive) | > 12.5 µM | > 12.5 µM | > 12.5 µM | > 12.5 µM | > 12.5 µM (inactive)
Cc1ccc(-n2nnc(-c3cccnc3Cl)n2)cc1 | > 12.5 µM (inactive) | > 12.5 µM | > 12.5 µM | > 12.5 µM | > 12.5 µM | > 12.5 µM (inactive)
c1ccc(-c2cnc(-c3ccccn3)nn2)cc1 | inactive | 5.74 µM | 10 µM | > 12.5 µM | 5.78 µM | inactive
O=C(N/N=C/c1cccnc1)c1ccc2c(c1)OCO2 | inactive | 11.2 µM | > 12.5 µM | > 12.5 µM | > 12.5 µM | > 12.5 µM (inactive)
CC(C)(C)OC(=O)NCc1ccc(NC(=O)c2nc[nH]c2C(=O)N[C@@H](Cc2ccccc2)C(=O)OCc2ccccc2)cc1 | > 12.5 µM (inactive) | > 12.5 µM | > 12.5 µM | > 12.5 µM | > 12.5 µM | > 12.5 µM (inactive)
